Here are results for ten molecules from publication PMC9180903, “Substituted Syndecan-2-Derived Mimetic Peptides Show Improved Antitumor Activity over the Parent Syndecan-2-Derived Peptide” (International Journal of Molecular Sciences, 2022).

Ends that are not written are not given here.

One series relates to MMPs. The arrangement: method as in PMID 29735645, PMID 9484924, PMID 10100701, PMID 12085177. Particulars: batimastat phase I, marimastat phase III; cited from earlier work.
In series [1] the target is T1, pro-domain of MMP-7 (PDMMP-7) (Homo sapiens, UniProt P09237).
T1 construct: TRX-His tag (N, cleaved yes); made in house
T1 sequence (P09237 18-94 limits assumed): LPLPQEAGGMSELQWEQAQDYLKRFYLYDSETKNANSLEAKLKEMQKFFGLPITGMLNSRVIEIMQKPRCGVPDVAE
Kind of series: Fluorescence titration of peptides against MMP-7 pro-domain. Particulars: fluorescence spectroscopy; for Kd: ex 280 nm, em 347 nm, 10 μM PDMMP-7, peptide titrated up to 1:80, PBS pH 7.4, 25 °C. The series is classed as binding. The protocol: The gene encoding the pro-domain sequence (PDMMP-7) was cloned into the pET32a vector, which has a TRX-His tag at the N-terminus, for protein expression and purification. Between the TRX-His tag and the pro-domain, a TEV cleavage sequence was inserted. Proteins were overexpressed with 1 mM IPTG and isolated using Ni-NTA affinity chromatography. The purified TRX-His tag-PDMMP-7 was incubated with TEV protease at a 1:1 molar ratio for 12 h. The reaction mixture was further purified in phosphate-buffered saline (PBS) buffer at pH 7.4 using a HiLoad^TM superdex^TM 75 column (GE Healthcare, Little Chalfont, UK) to remove tags. The final protein sample was concentrated to 14 mg/mL for the fluorescence experiment.
The binding affinity between the PDMMP-7 and each synthetic peptide was measured at 298 K (25 °C) using an LS55 fluorescence spectrophotometer (Perkin Elmer, Waltham, MA, USA) at wavelengths of 280 nm (excitation) and 300–450 nm (emission). PDMMP-7 and peptides were prepared in phosphate-buffered saline (PBS) buffer at pH 7.4. The concentration of PDMMP-7 was set at 10 μM, and the input amount of each peptide versus PDMMP-7 was titrated at a molar ratio up to 1:80 using a thermostat cuvette. The dissociation constant (Kd) of the PDMMP-7/peptide complex was calculated using the equation log[(Fo − F)/F] = log(1/Kd) + nlog[ligand], where Fo and F represent the fluorescence intensity of PDMMP-7 at 347 nm in the absence and presence of the peptide, respectively, and n represents the number of binding sites.

Another series relates to HT29-SDC2 cells. In words: MTT assay. Format: cell-based, human. Particulars: 50 nM, up to 48 h. The protocol: (§1) Cell proliferation was measured by a colorimetric assay using 3-(4,5-dimethythiazol-2-yl) 2,5-diphenyltetrazolium bromide (MTT; Amresco, Solon, OH, USA) according to the manufacturer’s instructions. Briefly, cells were harvested with 0.05% trypsin/EDTA and seeded to 48-well plates (Thermo Fisher Scientific). After cells were allowed to attach to the plate for 24 h, medium containing 0.5 mg/mL MTT was added to each plate and incubation was continued for 1 h. The medium was then removed, and 200 μL of dimethyl sulfoxide (DMSO) was added to each plate for 30 min at room temperature. The mean concentration of absorbance at 570 nm in each set of samples was measured using a 96-well microtiter plate reader (Dynatech, Chantilly, VA, USA).
Background: Tetrazolium assays rely on reduction of a dye to a coloured formazan, in cell work by metabolically active cells.

Another series has as its system HCT116 cells. Kind of series: MTT assay. The series is classed as cell-based, human. Particulars: 50 nM peptide. As for the experimental part:
as §1

Series [2] deals with T2, pro-domain of matrix metalloproteinase-7 (MMP-7).
T2 sequence (P09237 whole entry, species assumed, looked up): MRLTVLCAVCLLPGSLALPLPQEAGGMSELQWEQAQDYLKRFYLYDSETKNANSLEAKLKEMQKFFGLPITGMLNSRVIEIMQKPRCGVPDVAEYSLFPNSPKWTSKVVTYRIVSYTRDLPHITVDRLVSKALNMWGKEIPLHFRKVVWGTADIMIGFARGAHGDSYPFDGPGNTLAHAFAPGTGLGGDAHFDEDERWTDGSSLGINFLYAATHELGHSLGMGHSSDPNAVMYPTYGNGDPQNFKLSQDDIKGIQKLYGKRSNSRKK
In words: other fluorescence titration; intrinsic fluorescence of PDMMP-7 (10 μM; excitation 280 nm, emission 300-450 nm, read at 347 nm), peptide titrated up to a molar ratio of 1:80, PBS pH 7.4, 298 K (25 °C).

Take `CNC(=O)[C@@H](NC(=O)[C@H](CC(C)C)[C@H](O)C(=O)NO)C(C)(C)C` [marimastat]: the “side effects in clinical trials” value in the series with MMPs is reported as “significant musculoskeletal toxicity”.
As for SGVYPIDDDDYASASGSGAD [S2-P], the Kd (as a rule, the free concentration of one partner at which half of the binding sites on the other are occupied at equilibrium, for simple one-to-one binding) in series [1] amounted to 1220 µM.
Take SGVYPIDDDDYDSASGSGAD [S2-D]: the Kd in series [1] stood at 550 µM. For the same molecule, the “cytotoxicity against HT29-SDC2 cells” value in the series with HT29-SDC2 cells is “Neither peptide showed cytotoxicity”. For the same molecule, the “cytotoxicity in HCT116 cells” value in the series on HCT116 cells is “did not exert cytotoxicity”.
Taken in the same sequence, the figures for SGVYPIDDFDYESASGSGAD [S2-FE] were 456 µM, “Neither peptide showed cytotoxicity” and “did not exert cytotoxicity”.
As to “SGVYPIDDLDYASASGSGAD [S2-L, modified SDC2-mimetic peptide derived from S2-P]”, in series [1] (PBS pH 7.4, 25 °C), the “binding to the MMP-7 pro-domain compared to S2-P” value is listed as “reduced binding”.
With SGVYPIFDLDYDSASGSGAD [S2-FLD], in series [1], the Kd was found to be 64 µM.
As for SGVYPIDDFDYESASGSGAD [S2-FE, SDC2-mimetic peptide], the dissociation constant (Kd) in series [2] was 456 µM.
On the same count and under the same terms, the same measure for SGVYPIFDLDYDSASGSGAD [S2-FLD, SDC2-mimetic peptide]: 64 µM.
As for SGVYPIDDDDYASASGSGAD [S2-P, synthetic peptide corresponding to human SDC2 extracellular domain residues 41-60], the Kd in series [2] was determined as 1220 µM.
On to SGVYPIDDDDYDSASGSGAD [S2-D, SDC2-mimetic peptide with an Ala-to-Asp substitution at the C-terminal side of Tyr 51], for which the Kd in series [2] was determined as 550 µM.
